Results on 5 molecules are retold here after publication PMC12470768, “Mentha rotundifolia, a Source of Amoebicidal Agents Against Naegleria fowleri” (International Journal of Molecular Sciences, 2025).

The subject of data set [1] is N. fowleri trophozoites. Description: Plasma membrane permeability (SYTOX Green). To be noted: IC90, 24 h; compound 7 on ATCC 30808, compound 10 on ATCC 30215, amphotericin B on both. The data set is classed as cell-based, Naegleria fowleri. How it is done:
(§1) To evaluate the induction of PCD, N. fowleri strains ATCC® 30808™ and ATCC® 30215™ were treated with the IC90 concentration of the compounds 7 and 10 for 24 h at 37 °C. After incubation, specific fluorescent markers were used to assess various detectable metabolic events, following the manufacturers’ instructions for each assay. Amphotericin B was used as a positive control, and untreated amoebae served as a negative control. Fluorescence imaging was performed using EVOS M5000 Cell Imaging System (Life Technologies, Madrid, Spain) and confocal microscope Leica DMI 4000 B equipped with Leica Application Suite X software version 3.5.5.19976 and Leica HC PL APO 63x/1.40 OIL CS2 objective (Leica Microsystems, Wetzlar, Germany). The fluorescence obtained was expressed as mean ± standard deviation from at least three independent experiments.
After treatment, SYTOX™ Green nucleic acid stain (Life Technologies, Madrid, Spain) was added to each well at a final concentration of 1 μg/mL and incubated for 15 min in the dark. […] In contrast, viable cells with intact membranes exclude the dye and remain non-fluorescent. Untreated trophozoites were used as negative controls.

Data set [2] has as its system N. fowleri ATCC® 30215™ trophozoites. The data set can be described thus: In vitro amoebicidal activity against N. fowleri trophozoites (alamarBlue), strain ATCC 30215. The data set is classed as cell-based, Naegleria fowleri. To be noted: trophozoite stage; for IC50: Naegleria fowleri, ATCC30215, 48 h, mean ± SD; for N. fowleri ATCC 30215 SI (CC50/IC50): selectivity index vs murine macrophages J774. How it is done:
(§2) The in vitro activity of the tested compounds against Naegleria fowleri trophozoites was evaluated using two clinical strains obtained from the American Type Culture Collection (ATCC® 30808™ and ATCC® 30215™). Trophozoites were cultured axenically at 37 °C in 2% (w/v) Bactocasitone medium (Thermo Fisher Scientific, Madrid, Spain), supplemented with 10% (v/v) fetal bovine serum (FBS), […] penicillin G sodium salt, and 0.5 mg/mL streptomycin sulfate (Sigma-Aldrich, Madrid, Spain). For cytotoxicity assessment, murine macrophages from the J774A.1 cell line (ATCC® TIB-67) were cultured in Dulbecco’s Modified Eagle’s Medium (DMEM) supplemented with 10% (v/v) FBS and 10 μg/mL gentamicin sulfate (Sigma-Aldrich, Madrid, Spain). The macrophages were maintained at 37 °C in a 5% CO2 atmosphere.
(§3) The trophocidal activity of the compounds was evaluated using the alamarBlue® colorimetric assay. N. fowleri trophozoites were seeded in duplicate in a 96-well microtiter plate at a concentration of 2 × 10^5 cells/mL and incubated for adhesion in Bactocasitone medium (2% v/w) (Thermo Fisher Scientific, Madrid, Spain), supplemented with 10% (v/v) fetal bovine serum (FBS), 0.3% penicillin G sodium salt, and 0.5 mg/mL streptomycin sulfate (Sigma-Aldrich, Madrid, Spain). Different concentrations of the evaluated compounds, prepared in fresh Bactocasitone medium, were added to the wells (50 µL per well). The negative control consisted of trophozoites incubated with the medium alone. After adding 10 µL of alamarBlue® reagent, the plates were incubated at 37 °C for 48 h with slight agitation. The data were analyzed using nonlinear regression with GraphPad Prism 9 software to determine the IC50 and IC90 values, which were then used for further studies on PCD [10].
A general note: The colour change of resazurin is a common sign of viable cells or microbes.

For data set [3], the system named is N. fowleri ATCC® 30808™ cyst stage. Description: In vitro cysticidal activity against N. fowleri cysts (alamarBlue), strain ATCC 30808. Conditions: Naegleria fowleri, ATCC30808, mean ± SD. The data set is classed as cell-based, Naegleria fowleri. How it is done: (§4) Following the assays against trophozoites, the compounds were further evaluated for their activity against the cyst stage of N. fowleri (ATCC® 30808™ and ATCC® 30215™). To induce cyst formation, the trophozoites were centrifuged, resuspended in MYAS medium, and incubated under slight agitation at room temperature for 10 days. After this, mature cysts were harvested, pretreated with 0.5% SDS, and seeded in a 96-well microtiter plate at 2 × 10^5 cells/mL. The drugs were tested in serial dilutions, and after 24 h of incubation at 37 °C, the medium was replaced with fresh Bactocasitone medium. The colorimetric alamarBlue® assay was used to assess cyst viability, with 10 µL of reagent added to each well. The plates were incubated for an additional 72 h at 37 °C, and fluorescence was measured using the EnSpire® Multimode Plate Reader (PerkinElmer, Madrid, Spain). The results were compared to a negative control (untreated cysts) and a positive control (amphotericin B and miltefosine). The IC50 values were determined through nonlinear regression analysis.

Data set [4] can be described thus: In vitro cytotoxicity on murine macrophages (alamarBlue). The data set is classed as cell-based. To be noted: mouse, J774A.1 murine macrophage cell line (ATCC TIB-67), mean ± SD. How it is done: as §2
The cytotoxicity of the compounds was assessed against the murine macrophage cell line J774A.1 (ATCC® TIB-67™). Cells were maintained at 37 °C in a 5% CO2 atmosphere in DMEM medium. In the assay, different concentrations of the compounds were added to the cells in a 96-well microtiter plate, and after 24 h of incubation, 10 µL of alamarBlue® reagent was added. The fluorescence intensity was measured using the EnSpire® Multimode Plate Reader (PerkinElmer, Madrid, Spain). The cytotoxic concentration required to reduce cell viability by 50% (CC50) was determined through nonlinear regression analysis using GraphPad Prism 9 software. The results were compared with those obtained against trophozoites to calculate the selectivity index (S.I.) for N. fowleri.

Data set [5] deals with N. fowleri trophozoites. Description: Chromatin condensation (Hoechst 33342 / propidium iodide staining). The data set is classed as cell-based, Naegleria fowleri. To be noted: IC90, 24 h; compound 7 on ATCC 30808, compound 10 on ATCC 30215, amphotericin B on both. The method, then: as §1
To evaluate the chromatin condensation, cells were stained with Hoechst 33,342 (1 µM) and propidium iodide (PI) (1 µM) for 20 min in the dark. Hoechst 33,342 binds to condensed chromatin in apoptotic cells and emits blue fluorescence, while PI enters cells with compromised membranes, indicative of late apoptosis or necrosis, and binds to DNA, emitting red fluorescence. […] Untreated cells were included as negative controls to establish baseline fluorescence levels.

For data set [6], the system named is N. fowleri ATCC® 30215™ cyst stage. The data set can be described thus: In vitro cysticidal activity against N. fowleri cysts (alamarBlue), strain ATCC 30215. The data set is classed as cell-based. Conditions: Naegleria fowleri, ATCC30215, mean ± SD. The method, then: as §4
For data set [7], the system named is N. fowleri ATCC® 30808™ trophozoites. The data set can be described thus: In vitro amoebicidal activity against N. fowleri trophozoites (alamarBlue), strain ATCC 30808. The data set is classed as cell-based, Naegleria fowleri. To be noted: for IC50: Naegleria fowleri; for IC50 / N. fowleri ATCC 30808 IC50: mean ± SD; for N. fowleri ATCC 30808 SI (CC50/IC50): selectivity index vs murine macrophages J774; for N. fowleri ATCC 30808 IC50: trophozoites. How it is done:
as §2, §3

Where [8] appears, read: ATCC30808, 48 h, trophozoite stage, 48 h.
The mark [9] stands for this setting: ATCC30808, trophozoites, extracts, fractions, subfractions, isolated compound and reference drugs.

For orientation: IC50 means the concentration needed to halve the response being measured. Low values mean greater potency in that assay, high ones weaker potency in that assay. As a reminder, the CC50 is the concentration that lowers cell viability or growth by half. A lower CC50 goes with greater toxicity to the cells.

With `C[C@@H]1[C@H](O)[C@@H](C)/C=C/C=C/C=C/C=C/C=C/C=C/C=C/[C@H](O[C@@H]2O[C@H](C)[C@@H](O)[C@H](N)[C@@H]2O)C[C@@H]2O[C@](O)(C[C@@H](O)C[C@@H](O)[C@H](O)CC[C@@H](O)C[C@@H](O)CC(=O)O[C@H]1C)C[C@H](O)[C@H]2C(=O)O` [Amphotericin B, reference compound], in the data set with N. fowleri trophozoites [1], the “plasma membrane integrity (SYTOX Green fluorescence)” value is “bright green fluorescence”. The IC50 amounted to 0.16 ± 0.01 µM in data set [2]; 0.53 ± 0.03 µM in data set [3]; 0.62 ± 0.04 µM in data set [6]; 0.12 ± 0.03 µM in data set [7] (setting [8]); 0.18 µg/mL in data set [7] (setting [9]). In addition, the “N. fowleri ATCC 30215 SI (CC50/IC50)” value in data set [2] is listed as >1250. Further, the CC50 at 24 h in data set [4] was > 200 µM. For the same molecule, in the data set on N. fowleri trophozoites [5], the “chromatin condensation (Hoechst 33342 fluorescence)” value is on record as “clear chromatin condensation”. Moreover, the “N. fowleri ATCC 30808 SI (CC50/IC50)” value in data set [7] (trophozoite stage) was >1650.89. Also, the “N. fowleri ATCC 30808 IC50” value in data set [7] (extracts, fractions, subfractions, isolated compound and reference drugs, listed as A) turned out to be 0.162 ± 0.002 µg/mL.
In the case of `C[C@H]1[C@H](C)CC[C@]2(C(=O)O)CC[C@]3(C)C(=CC[C@@H]4[C@@]5(C)CC[C@H](O)C(C)(C)[C@@H]5CC[C@]43C)[C@H]12` [Compound 1, ursolic acid], the IC50 turned out to be 82.5 ± 8.43 µM in data set [2], 142 ± 8.17 µM in data set [7] (setting [8]) and 65.9 µg/mL in data set [7] (setting [9]). Further, the “N. fowleri ATCC 30215 SI (CC50/IC50)” value in data set [2] was found to be 0.43. Besides, the 50% cytotoxic concentration (CC50) at 24 h in data set [4] was 35.9 ± 9.28 µM. Further, the “N. fowleri ATCC 30808 IC50” value in data set [7] (extracts, fractions, subfractions, isolated compound and reference drugs, listed as UA (1)) came out at 65.91 ± 3.73 µg/mL.
Consider `COC(=O)[C@]12CC[C@@H](C)[C@H](C)[C@H]1C1=CC[C@@H]3[C@@]4(C)CC[C@H](O)C(C)(C)[C@@H]4CC[C@@]3(C)[C@]1(C)CC2` [Compound 2, methyl ursolate], for which the figures for the half-inhibitory concentration (IC50) in data set [2] and in data set [7] (setting [8]) were 84.5 ± 6.31 µM and 88.7 ± 3.02 µM, respectively. In data set [4], it took 49.6 ± 5.65 µM to reach half-maximal cytotoxicity (CC50 at 24 h). For the same molecule, the “N. fowleri ATCC 30808 SI (CC50/IC50)” value in data set [7] (trophozoite stage) is given as 1.12.
With `COC(=O)[C@]12CC[C@@H](C)[C@H](C)C1C1=CCC3[C@@]4(C)CC[C@H](OC(=O)CCCC(=O)O)C(C)(C)C4CC[C@@]3(C)[C@]1(C)CC2` (stereo partly shown) [Compound 8, 3-O-(Hemiglutaryl)-methyl ursolate], in data set [2], inhibition was half-maximal at 38.7 ± 2.15 µM (IC50) and the “N. fowleri ATCC 30215 SI (CC50/IC50)” value is 2.20. The same molecule came in with a CC50 at 24 h in data set [4] of 85 ± 5 µM. The same molecule yielded an IC50 in data set [7] (setting [8]) of 66.6 ± 9.25 µM. In addition, the “N. fowleri ATCC 30808 SI (CC50/IC50)” value in data set [7] (trophozoite stage) worked out at 1.24.
Take `CCCCCCCCCCCCCCCCOP(=O)([O-])OCC[N+](C)(C)C` [Miltefosine, reference compound]: the IC50 is 81.6 ± 7.23 µM in data set [2]; 21.5 ± 2.62 µM in data set [3]; 37.8 ± 5.6 µM in data set [6]; 38.7 ± 4.23 µM in data set [7] (setting [8]); 12.7 ± 1.49 µg/mL in data set [7] (setting [9]). The “N. fowleri ATCC 30215 SI (CC50/IC50)” value in data set [2] amounted to 1.57. The same molecule registered a CC50 at 24 h in data set [4] of 128 ± 8.85 µM. Moreover, in data set [7] (trophozoite stage), the “N. fowleri ATCC 30808 SI (CC50/IC50)” value stood at 3.30.
